≈ marks a conversion by molar mass, not a printed value. Read-outs that look alike come from different tables or passages of the source.
Legend:
[1] = system: Mycobacterium smegmatis IFO-13167; assay: in vitro MIC, agar streak method; format: cell-based; settings: Mycolicibacterium smegmatis, IFO13167; Mycobacterium smegmatis IFO-13167; Heart infusion agar; read-out: MIC
Source text: (§1) | ^(1) Heart infusion agar

[2] = system: Bacillus subtilis IAM-1027; assay: in vitro MIC, agar streak method; format: cell-based
Source text: as §1

[3] = system: Staphylococcus aureus 209P Stf; assay: in vitro MIC, agar streak method; format: cell-based; settings: Heart infusion agar
Source text: as §1

[4] = system: Escherichia coli NIHJ IFO-12734; assay: in vitro MIC, agar streak method; format: cell-based
Source text: as §1

[5] = system: Micrococcus flavus ATCC-10240; assay: in vitro MIC, agar streak method; format: cell-based
Source text: as §1

[6] = system: Pseudomonas aeruginosa IFO-12689; assay: in vitro MIC, agar streak method; format: cell-based; settings: IFO12689, Heart infusion agar
Source text: as §1

[7] = system: Escherichia coli K-12 IAM-1264; assay: in vitro MIC, agar streak method; format: cell-based
Source text: as §1

[8] = system: P388 leukaemia; assay: Antitumor effect against P388 leukaemia in CDF1 mice; format: in vivo; settings: Mus musculus, read-out: Mean survival (T/C, %); for response vs control in vivo at 1.88 mg/kg: 1.88 mg/kg/day i.p.; for response vs control in vivo at 3.75 mg/kg: 3.75 mg/kg/day i.p.; for response vs control in vivo at 7.5 mg/kg: 7.5 mg/kg/day i.p.; for response vs control in vivo at 15 mg/kg: 15.0 mg/kg/day i.p.
Description: The anthracycline glycosides provided by the present invention were tested against P388 leukaemia in mice. When CDF1 mice are inoculated with 1×10^6 cells of P388 intraperitoneally and each of the antibiotics is administered intraperitoneally on days 1, 5 and 9, the survival time of the treated mice is prolonged as shown in Table 5 hereinafter.

[9] = system: Staphylococcus aureus 209P IAM-1011; assay: in vitro MIC, agar streak method; format: cell-based; settings: Heart infusion agar
[10] = system: Candida albicans ATCC-10231; assay: in vitro MIC, agar streak method; format: cell-based
Source text: (§2) | ^(2) Sabouraud dextrose agar

[11] = system: Candida tropicalis ATCC-13803; assay: in vitro MIC, agar streak method; format: cell-based
Source text: as §2

[12] = system: Sarcina lutea IAM1009; assay: in vitro MIC, agar streak method; format: cell-based; settings: Heart infusion agar
[13] = in vivo; settings: mouse, ip, mice, single i.p. injection, judged 72 hours after, read-out: acute intraperitoneal LD50
Description: The acute intraperitoneal LD50 in mice judged 72 hours after a single injection of the antibiotics is about 90 mg/kg for auramycin C, auramycin D, sulfurmycin C and sulfurmycin D, 40~80 mg/kg for auramycin G and sulfurmycin G and 20~40 mg/kg for auramycin E and sulfurmycin E.

[14] = system: Bacillus cereus Rol79B; assay: in vitro MIC, agar streak method; format: cell-based; settings: Heart infusion agar
Source text: as §1

[15] = system: Staphylococcus epidermidis IFO-12993; assay: in vitro MIC, agar streak method; format: cell-based; settings: Staphylococcus epidermidis IFO-12993, Heart infusion agar
Source text: as §1

[16] = IAM1027, Bacillus subtilis IAM-1027, Heart infusion agar, read-out: MIC
[17] = IFO12734, Escherichia coli NIHJ IFO-12734, Heart infusion agar, read-out: MIC
[18] = IAM1264, Escherichia coli K-12 IAM-1264, Heart infusion agar, read-out: MIC
[19] = ip, days 1, 5 and 9, 1×10^6 P388 cells i.p., CDF1 mice
[20] = ATCC10231, Candida albicans ATCC-10231, Sabouraud dextrose agar, read-out: MIC
[21] = ATCC13803, Candida tropicalis ATCC-13803, Sabouraud dextrose agar, read-out: MIC
[22] = Micrococcus luteus, IAM1009, Sarcina lutea IAM-1009, read-out: MIC
[23] = Micrococcus flavus, ATCC10240, Micrococcus flavus ATCC-10240, Heart infusion agar, read-out: MIC
[24] = Staphylococcus aureus, read-out: MIC

Row | SMILES | MIC [1] [µg/mL] | MIC [2, 16] [µg/mL] | MIC [3] [µg/mL] | MIC [4, 17] [µg/mL] | MIC [6] [µg/mL] | MIC [7, 18] [µg/mL] | response vs control in vivo at 1.88 mg/kg [8, 19] [%] | response vs control in vivo at 3.75 mg/kg [8, 19] [%] | response vs control in vivo at 7.5 mg/kg [8, 19] [%] | response vs control in vivo at 15 mg/kg [8, 19] [%] | MIC ([9]; read-out: MIC) [µg/mL] | MIC [10, 20] [µg/mL] | MIC [11, 21] [µg/mL] | MIC [12, 22] [µg/mL] | LD50 at 72 h [13] [mg/kg] | MIC [5, 23] [µg/mL] | MIC [9, 24] [µg/mL] | MIC ([14]; read-out: MIC) [µg/mL] | MIC [15] [µg/mL] | further results
1 | COC(=O)C1c2cc3c(c(O)c2C(OC2CC(N(C)C)C(OC4CC(O)C(O)C(C)O4)C(C)O2)CC1(O)CC(C)=O)C(=O)c1c(O)cccc1C3=O (stereo not shown) [Sulfurmycin C] | 3.13 (≈ 4.3 µM) | 12.5 (≈ 17.2 µM) | 6.25 (≈ 8.59 µM) | > 50 | > 50 | > 50 | 131 | 141 | 138 | 141 | 6.25 (≈ 8.59 µM) | > 50 | > 50 | 6.25 (≈ 8.59 µM) | ~90 |  |  |  |  | MIC ([5]; ATCC10240, Micrococcus flavus ATCC-10240, Heart infusion agar, read-out: MIC): 6.25 µg/mL (≈ 8.59 µM)
2 | COC(=O)C1c2cc3c(c(O)c2C(OC2CC(N(C)C)C(O)C(C)O2)CC1(O)CC(C)=O)C(=O)c1c(O)cccc1C3=O (stereo not shown) [Sulfurmycin D] | 6.25 (≈ 10.5 µM) | 12.5 (≈ 20.9 µM) | 25 (≈ 41.8 µM) | > 50 | > 50 | > 50 | 106 | 135 | 128 | 152 |  | > 50 | > 50 | 25 (≈ 41.8 µM) | ~90 | 25 (≈ 41.8 µM) | 25 (≈ 41.8 µM) |  |  | 
3 | COC(=O)C1c2cc3c(c(O)c2C(OC2CC(N(C)C)C(OC4CC(O)C(OC5CCC(O)C(C)O5)C(C)O4)C(C)O2)CC1(O)CC(C)=O)C(=O)c1c(O)cccc1C3=O (stereo not shown) [Sulfurmycin E] |  | 3.12 (≈ 3.71 µM) |  | > 50 |  | > 50 |  |  |  |  |  | > 50 | > 50 | 3.12 (≈ 3.71 µM) | 20 to 40 | 3.12 (≈ 3.71 µM) | 3.12 (≈ 3.71 µM) | 0.39 (≈ 0.463 µM) | 1.56 (≈ 1.85 µM) | response vs control in vivo at 1.5 mg/kg ([8]; ip, 1.5 mg/kg/day i.p., days 1, 5 and 9, 1×10^6 P388 cells i.p., CDF1 mice): 133%; response vs control in vivo at 3 mg/kg ([8]; ip, 3.0 mg/kg/day i.p., days 1, 5 and 9, 1×10^6 P388 cells i.p., CDF1 mice): 140%; response vs control in vivo at 6 mg/kg ([8]; ip, 6.0 mg/kg/day i.p., days 1, 5 and 9, 1×10^6 P388 cells i.p., CDF1 mice): 150%; response vs control in vivo at 12 mg/kg ([8]; ip, 12.0 mg/kg/day i.p., days 1, 5 and 9, 1×10^6 P388 cells i.p., CDF1 mice): 165%
4 | COC(=O)C1c2cc3c(c(O)c2C(OC2CC(N(C)C)C(OC4CC(O)C(OC5CCC(O)C(C)O5)C(C)O4)C(C)O2)CC1(O)CC(C)=O)C(=O)c1c(O)cccc1C3=O (stereo not shown) [Sulfurmycin F] |  |  |  |  |  |  |  |  |  |  |  |  |  |  |  |  |  |  | 12.5 (≈ 14.8 µM) | MIC ([2]; Bacillus subtilis IAM-1027, Heart infusion agar): 3.12 µg/mL (≈ 3.71 µM); MIC ([4]; Escherichia coli NIHJ IFO-12734, Heart infusion agar): > 50 µg/mL; MIC [14]: 0.39 µg/mL (≈ 0.463 µM); MIC ([5]; Micrococcus flavus ATCC-10240, Heart infusion agar): 1.56 µg/mL (≈ 1.85 µM); MIC ([7]; Escherichia coli K-12 IAM-1264, Heart infusion agar): > 50 µg/mL; MIC [9]: 3.12 µg/mL (≈ 3.71 µM); MIC ([10]; Candida albicans ATCC-10231, Sabouraud dextrose agar): > 50 µg/mL; MIC ([11]; Candida tropicalis ATCC-13803, Sabouraud dextrose agar): > 50 µg/mL; MIC ([12]; Sarcina lutea IAM-1009): 1.56 µg/mL (≈ 1.85 µM)
5 | COC(=O)C1c2cc3c(c(O)c2C(OC2CC(N(C)C)C(OC4CCC(OC5CCC(O)C(C)O5)C(C)O4)C(C)O2)CC1(O)CC(C)=O)C(=O)c1c(O)cccc1C3=O (stereo not shown) [Sulfurmycin G] |  |  |  |  |  |  |  |  |  |  | 6.25 (≈ 7.57 µM) |  |  | 12.5 (≈ 15.1 µM) | 40 to 80 |  |  | 0.39 (≈ 0.472 µM) |  | MIC ([2]; Bacillus subtilis, IAM1027): 6.25 µg/mL (≈ 7.57 µM); MIC ([4]; Escherichia coli, IFO12734): > 50 µg/mL; MIC ([5]; Micrococcus flavus, ATCC10240): 12.5 µg/mL (≈ 15.1 µM); MIC ([7]; Escherichia coli, IAM1264): > 50 µg/mL; MIC ([15]; IFO12993, read-out: MIC): 12.5 µg/mL (≈ 15.1 µM); response vs control in vivo at 1.5 mg/kg ([8]; P388, ip): 104%; response vs control in vivo at 3 mg/kg ([8]; P388, ip): 112%; response vs control in vivo at 6 mg/kg ([8]; P388, ip): 113%; response vs control in vivo at 12 mg/kg ([8]; P388, ip): 123%; response vs control in vivo at 24 mg/kg ([8]; P388, ip): 144%; MIC ([10]; Candida albicans, ATCC10231): > 50 µg/mL; MIC ([11]; Candida tropicalis, ATCC13803): > 50 µg/mL
